The values that follow come from patent EP0428272A2, “Trifluorobenzodiazepine compounds for use in therapy by intraoral administration” (Ellinwood, Everett Hews, priority 1989, dated 1991).

What is called Tmax is the time from dosing to the highest level. The term Cmax denotes the highest concentration seen after dosing. The term AUC denotes the area under the concentration-time curve, a measure of exposure.

Like-named read-outs stand apart in the source and are kept apart here.

Series [1] is described as follows: Pharmacokinetics in blood plasma after a single sublingual or per oral swallowed dose of quazepam 15 mg standard tablet. To be noted: for Lag time / half-life / Tmax / Cmax / AUC / CL/F: mean ± SD; for half-life / Tmax / Cmax / AUC: human; for half-life: plasma, 15 mg; for Tmax: time to Cmax; for Cmax: quazepam peak plasma concentration; for AUC: quazepam, area under plasma concentration-time curve; for CL/F: quazepam clearance. The class given is in vivo, volunteer adult humans. The protocol:
Test results will now be described. Testing was carried out using volunteer adult humans. Standard tablets containing, as active ingredient, solely quazepam or solely halazepam, were used. Such tablets were intended by their manufacturers to be swallowed but dissolved adequately in the mouth to permit the intraoral testing. • Figure 1 is a graph illustrating the concentration of quazepam (Q) and N-desalkyl-2-oxoquazepam (DOQ) in the blood plasma over 96 hours following a single sublingual dose (SL) or per oral swallowed dose (PO) of quazepam in a 15 mg standard tablet. • Figure 2 is a graph illustrating the concentration of quazepam (Q) and N-desalkyl-2-oxoquazepam (DOQ) in the blood plasma over 210 hours following a single sublingual dose (SL) or per oral swallowed dose (PO) of quazepam in a 15 mg standard tablet. • Figure 3 is a graph of computer simulated concentration levels of quazepam and N-desalkyl-2-oxoquazepam in the blood following sublingual and oral swallowed doses of quazepam (15 mg standard tablet) once a day for a 15 day period illustrating the marked reduction in accumulated levels of desalkyloxoquazepam with sublingual dosing; • Figure 4 is a graph illustrating the concentration of halazepam (HZ) and N-desalkyl-3-hydroxy-halazepam (ND) in the blood over 96 hours following a single sublingual dose (SL) or per oral swallowed dose (PO) of halazepam in a 20 mg standard tablet. • Figure 5 is a graph illustrating the concentration of halazepam (HZ) and N-desalkyl-3-hydroxy-halazepam (ND) in the blood over 240 hours following a single sublingual dose (SL) or per oral swallowed (PO) of halazepam in a 20 mg standard tablet; and • Figure 6 is a flow chart of the method of the present invention.
This change in concentrations for the two compounds can be seen with reference to Figure 1 and Figure 2 of the drawings where the differences in the parent compound Q and the metabolite DOQ for both the oral and sublingual dosing is shown. In Figure 3, by use of standard mutliple Q dose simulations, the differences in accumulation of Q and DOQ for sublingual versus oral dosing over 15 days is shown. With chronic dosing it is readily apparent that after 15 days the DOQ level, following oral administration, has reached levels that are associated with the threshold for impairing ataxic and incoordination affects (especially if larger doses are given).
In Table 1 and Table 2, set forth below, the average pharmacokinetic parameters for both Q and DOQ for both oral and sublingual routes of administration are set forth: TABLE I

Series [2] is described as follows: Concentration in blood after a single sublingual or per oral swallowed dose of halazepam 20 mg standard tablet. The class given is in vivo, volunteer adult humans. To be noted: sublingual administration of halazepam versus oral. The protocol: Test results will now be described. Testing was carried out using volunteer adult humans. Standard tablets containing, as active ingredient, solely quazepam or solely halazepam, were used. […]

The mark [3] stands for this setting: quazepam in plasma, oral quazepam 15 mg.
Setting [4] is: quazepam in plasma, sublingual quazepam 15 mg.

As for `O=C1CN=C(c2ccccc2F)c2cc(Cl)ccc2N1` [N-DESALKYL-2-OXOQUAZEPAM, N-desalkyl-2-oxoquazepam], the Lag time worked out at 0.66 ± 0.32 h in series [1] (metabolite N-desalkyl-2-oxoquazepam in plasma, oral quazepam 15 mg) and 1.74 ± 0.86 h in series [1] (metabolite N-desalkyl-2-oxoquazepam in plasma, sublingual quazepam 15 mg). Also, the “DOQ level relative to oral quazepam administration levels” value in series [1] (sublingual dosing of quazepam versus oral) is on record as “about one-half”.

Regarding `Fc1ccccc1C1=NCC(=S)N(CC(F)(F)F)c2ccc(Cl)cc21` [quazepam, 7-chloro-1-(2,2,2-trifluorethyl)-5-(o-fluorophenyl)-1,3-dihydro-2H-1,4-benzodiazepine-2-thione], the half-life in series [1] (quazepam in plasma, absorption half-life, sublingual quazepam 15 mg, read-out: t1/2 Ka (converted)) is 0.27 ± 0.1 h; in series [1] (quazepam in plasma, rapid distribution half-life, sublingual quazepam 15 mg, read-out: t1/2 λ₁ (converted)), 1.44 ± 0.45 h; in series [1] (quazepam in plasma, terminal elimination half-life, sublingual quazepam 15 mg, read-out: t1/2 λ₂ (converted)), 27.7 ± 7.18 h; in series [1] (po, quazepam in plasma, absorption half-life, oral quazepam 15 mg, read-out: t1/2 Ka (converted)), 0.77 ± 0.23 h; in series [1] (po, quazepam in plasma, rapid distribution half-life, oral quazepam 15 mg, read-out: t1/2 λ₁ (converted)), 1.73 ± 0.65 h; in series [1] (po, quazepam in plasma, terminal elimination half-life, oral quazepam 15 mg, read-out: t1/2 λ₂ (converted)) it was 24.6 ± 8.35 h. Besides, the Tmax is 2.57 ± 1.69 h in series [1] (setting [3]) and 0.78 ± 0.31 h in series [1] (setting [4]). Also, the Cmax in series [1] (oral quazepam 15 mg) was found to be 26.7 ± 6.83 ng/mL; in series [1] (sublingual quazepam 15 mg) it was 42.4 ± 10.4 ng/mL. For the same compound, the AUC in series [1] (oral quazepam 15 mg) came out at 473 ± 239 ng·h/mL; in series [1] (sublingual quazepam 15 mg) it was 1460 ± 299 ng·h/mL. Besides, the CL/F in series [1] (oral quazepam 15 mg) worked out at 37.56 ± 16.89 h⁻¹; in series [1] (sublingual quazepam 15 mg) it was 8.78 ± 5.25 h⁻¹. In addition, the Lag time in series [1] (setting [3]) turned out to be 0.52 ± 0.28 h; in series [1] (setting [4]), 0.18 ± 0.05 h. For the same compound, the “increase of availability of quazepam” value in series [1] (sublingual dosing in contrast to oral dosing of quazepam) is “about 60%”.

On to `O=C1CN=C(c2ccccc2)c2cc(Cl)ccc2N1CC(F)(F)F` [halazepam, 7-chloro-1,3 dihydro-5-phenyl-1-1-(2,2,2-trifluoroethyl)-2H-1,4-benzodiazepine-2-one], for which the availability of halazepam entry in series [2] is given as “significantly increased”.

For `O=C1Nc2ccc(Cl)cc2C(c2ccccc2)=NC1O` (stereo not shown) [N-dealkyl-hydroxy-halazepam, N-desalkyl-3-hydroxy-halazepam], the “level of metabolite N-dealkyl-hydroxy-halazepam” value in series [2] is “reducing”.
